Laboratory results: the supplement of paper PMC10307832

Tests used:
Assay in all cases: relative viability (nuclei count vs DMSO), 5 days (fraction); higher = more cells survive
Gemcitabine + Vorinostat = compound: Nc1ccn([C@@H]2O[C@H](CO)[C@@H](O)C2(F)F)c(=O)n1 [Gemcitabine] + O=C(CCCCCCC(=O)Nc1ccccc1)NO [Vorinostat] (partner 1 µM)
Outline: (§1)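 A single step with final 0.05% Triton X-100, 1% formaldehyde and 1 ug/ml Hoechst fixed the cells and stained nuclei 5 days after treatment. Lung cancer cell lines in 1536-well plates had been treated by pin tool the day after seeding with one drug alone or a fixed anchor-drug dose plus five library-drug doses (not always all listed) in √10 steps, and nuclei were counted on 4× images. Relative viability is the ratio of nuclei in treated wells to nuclei in vehicle wells, taken as the median of duplicate plates.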

Gemcitabine + Dasatinib = compound: Nc1ccn([C@@H]2O[C@H](CO)[C@@H](O)C2(F)F)c(=O)n1 [Gemcitabine] + Cc1nc(Nc2ncc(C(=O)Nc3c(C)cccc3Cl)s2)cc(N2CCN(CCO)CC2)n1 [Dasatinib] (partner 0.075 µM)
Outline: as §1

Gemcitabine + Pictilisib = compound: Nc1ccn([C@@H]2O[C@H](CO)[C@@H](O)C2(F)F)c(=O)n1 [Gemcitabine] + CS(=O)(=O)N1CCN(Cc2cc3nc(-c4cccc5[nH]ncc45)nc(N4CCOCC4)c3s2)CC1 [Pictilisib] (partner 1 µM)
Outline: as §1

Gemcitabine + Crizotinib = compound: Nc1ccn([C@@H]2O[C@H](CO)[C@@H](O)C2(F)F)c(=O)n1 [Gemcitabine] + C[C@@H](Oc1cc(-c2cnn(C3CCNCC3)c2)cnc1N)c1c(Cl)ccc(F)c1Cl [Crizotinib] (partner 1 µM)
Outline: as §1

Cell Line	relative viability (Gemcitabine + Vorinostat; first compound 0.001 µM)	relative viability (Gemcitabine + Vorinostat; first compound 0.003162 µM)	relative viability (Gemcitabine + Vorinostat; first compound 0.01 µM)	relative viability (Gemcitabine + Vorinostat; first compound 0.03162 µM)	relative viability (Gemcitabine + Vorinostat; first compound 0.1 µM)	relative viability (Gemcitabine + Dasatinib; first compound 0.001 µM)	relative viability (Gemcitabine + Dasatinib; first compound 0.003162 µM)	relative viability (Gemcitabine + Dasatinib; first compound 0.01 µM)	relative viability (Gemcitabine + Dasatinib; first compound 0.03162 µM)	relative viability (Gemcitabine + Dasatinib; first compound 0.1 µM)	relative viability (Gemcitabine + Pictilisib; first compound 0.001 µM)	relative viability (Gemcitabine + Pictilisib; first compound 0.003162 µM)	relative viability (Gemcitabine + Pictilisib; first compound 0.01 µM)	relative viability (Gemcitabine + Pictilisib; first compound 0.03162 µM)	relative viability (Gemcitabine + Pictilisib; first compound 0.1 µM)	relative viability (Gemcitabine + Crizotinib; first compound 0.001 µM)	relative viability (Gemcitabine + Crizotinib; first compound 0.003162 µM)	relative viability (Gemcitabine + Crizotinib; first compound 0.01 µM)	relative viability (Gemcitabine + Crizotinib; first compound 0.03162 µM)	relative viability (Gemcitabine + Crizotinib; first compound 0.1 µM)
NCI-H23	0.504	0.122	0.11	0.106	0.109	0.865	0.36	0.126	0.135	0.1	0.446	0.328	0.143	0.146	0.104	0.297	0.206	0.12	0.131	0.152
NCI-H322M	0.864	0.408	0.337	0.384	0.44	0.295	0.241	0.28	0.274	0.252	0.445	0.178	0.251	0.239	0.244	0.85	0.357	0.269	0.219	0.212
NCI-H358	0.988	0.186	0.0888	0.113	0.0707	0.21	0.151	0.0931	0.0759	0.0931	0.338	0.27	0.188	0.194	0.161	0.494	0.228	0.188	0.166	0.135
NCI-H441	0.717	0.265	0.182	0.157	0.123	0.569	0.282	0.215	0.129	0.133	0.521	0.343	0.196	0.109	0.126	0.82	0.286	0.167	0.121	0.129
NCI-H460	0.855	0.736	0.458	0.0301	0.0175	0.495	0.524	0.46	0.0224	0.0058	0.37	0.328	0.0742	0.0745	0.0388	1.12	0.894	0.528	0.0182	0.0089
NCI-H520	0.728	0.81	0.336	0.211	0.157	0.212	0.258	0.161	0.151	0.154	0.333	0.321	0.254	0.199	0.161	0.915	0.769	0.465	0.156	0.108
NCI-H596	0.657	0.497	0.272	0.251	0.2	0.528	0.521	0.289	0.242	0.215	0.369	0.436	0.438	0.335	0.293	1.04	1.02	0.531	0.391	0.345
NCI-H647	0.435	0.129	0.0559	0.0673	0.0443	0.1	0.0588	0.0298	0.0257	0.0223	0.304	0.163	0.0953	0.0685	0.0658	1.09	0.195	0.0721	0.0642	0.0615
